Source: ChEMBL document CHEMBL5696439 (Cancer Res, 2010)
Calls of active or inactive are those of the source. The calls are words filed in the database; no cut-off is given here.

Columns and labels:
[1] = target: Calcium/calmodulin-dependent protein kinase type II subunit beta (Homo sapiens) (UniProt Q13554); test: Inhibition of recombinant human full-length His-tagged CAMK2B expressed in insect cells at 2 uM using Ser/Thr 17 as substrate measured after 1 hr by Z'-LYTE assay relative to control; settings: Insect cell
[2] = target: Serine/threonine-protein kinase MRCK alpha (Homo sapiens) (UniProt Q5VT25); test: Inhibition of recombinant human His-tagged CDC42BPA (1-473 residues) expressed in baculovirus expression system at 2 uM using Ser/Thr 13 as substrate measured after 1 hr by Z'-LYTE assay relative to control
[3] = target: Tyrosine-protein kinase CSK (Homo sapiens) (UniProt P41240); test: Inhibition of recombinant human full-length His-tagged CSK expressed in E. coli at 2 uM using Tyr 02 as substrate measured after 1 hr by Z'-LYTE assay relative to control
[4] = target: Epidermal growth factor receptor (Homo sapiens) (UniProt P00533); test: Inhibition of recombinant human GST-tagged EGFR (668-1210 residues) expressed in insect cells at 2 uM using Tyr 04 as substrate measured after 1 hr by Z'-LYTE assay relative to control; settings: Insect cell
[5] = target: Tyrosine-protein kinase Fyn (Homo sapiens) (UniProt P06241); test: Inhibition of recombinant human full-length His-tagged FYN expressed in insect cells at 2 uM using Tyr 02 as substrate measured after 1 hr by Z'-LYTE assay relative to control; settings: Insect cell
[6] = target: Tyrosine-protein kinase HCK (Homo sapiens) (UniProt P08631); test: Inhibition of recombinant human full-length GST-tagged HCK expressed in insect cells at 2 uM using Tyr 02 as substrate measured after 1 hr by Z'-LYTE assay relative to control; settings: Insect cell
[7] = target: Tyrosine-protein kinase JAK2 (Homo sapiens) (UniProt O60674); test: Inhibition of recombinant human GST-tagged JAK2 (809-1153 +9 residues) expressed in insect cells at 2 uM using Tyr 06 as substrate measured after 1 hr by Z'-LYTE assay relative to control; settings: Insect cell
[8] = target: Leukocyte tyrosine kinase receptor (Homo sapiens) (UniProt P29376); test: Inhibition of recombinant human GST-tagged LTK (450-864 residues) expressed in insect cells at 2 uM using Tyr 06 as substrate measured after 1 hr by Z'-LYTE assay relative to control; settings: Insect cell
[9] = target: Mitogen-activated protein kinase 1 (Homo sapiens) (UniProt P28482); test: Inhibition of recombinant human full length GST-tagged MAPK1 expressed in E.coli at 2 uM using Ser/Thr 03 as substrate measured after 1 hr by Z'-LYTE assay relative to control
[10] = target: High affinity nerve growth factor receptor (Homo sapiens) (UniProt P04629); test: Inhibition of recombinant human His-tagged NTRK1 (441-796 residues) expressed in insect cells at 2 uM using Tyr 01 as substrate measured after 1 hr by Z'-LYTE assay relative to control; settings: Insect cell
[11] = target: cAMP-dependent protein kinase catalytic subunit alpha (Homo sapiens) (UniProt P17612); test: Inhibition of recombinant human His-tagged PRKACA (1-351 residues) expressed in E.coli at 2 uM using Ser/Thr 01 as substrate measured after 1 hr by Z'-LYTE assay relative to control
[12] = target: Protein kinase C beta type (Homo sapiens) (UniProt P05771); test: Inhibition of recombinant human full length GST-tagged PRKCB2 expressed in insect cells at 2 uM using Ser/Thr 07 as substrate measured after 1 hr by Z'-LYTE assay relative to control; settings: Insect cell
[13] = target: Protein kinase C gamma type (Homo sapiens) (UniProt P05129); test: Inhibition of recombinant human full length GST-tagged PRKCG expressed in insect cells at 2 uM using Ser/Thr 07 as substrate measured after 1 hr by Z'-LYTE assay relative to control; settings: Insect cell
[14] = target: Protein kinase C zeta type (Homo sapiens) (UniProt Q05513); test: Inhibition of recombinant human PRKCZ at 2 uM using Ser/Thr 07 as substrate measured after 1 hr by Z'-LYTE assay relative to control
[15] = target: cGMP-dependent protein kinase 2 (Homo sapiens) (UniProt Q13237); test: Inhibition of recombinant human full length GST-tagged PRKG2 expressed in insect cells at 2 uM using Ser/Thr 01 as substrate measured after 1 hr by Z'-LYTE assay relative to control; settings: Insect cell
[16] = target: Ribosomal protein S6 kinase alpha-2 (Homo sapiens) (UniProt Q15349); test: Inhibition of recombinant human full length GST-tagged RPS6KA2 expressed in insect cells at 2 uM using Ser/Thr 06 as substrate measured after 1 hr by Z'-LYTE assay relative to control; settings: Insect cell
[17] = target: Proto-oncogene tyrosine-protein kinase Src (Homo sapiens) (UniProt P12931); test: Inhibition of recombinant human full length His-tagged SRC expressed in insect cells at 2 uM using Tyr 02 as substrate measured after 1 hr by Z'-LYTE assay relative to control; settings: Insect cell
[18] = test system: HeLa; test: Antiproliferative activity against human HeLa cells assessed as cell growth inhibition incubated for 24 hrs by MTS assay; format: functional, cell-based
[19] = test system: U-87 MG; test: Antiproliferative activity against human U-87MG cells assessed as cell growth inhibition at 10 micromol/L incubated for 3 days by MTS assay relative to control; format: functional, U-87MG ATCC; settings: 72 h, dose 10 µmol/L, time 3 day
[20] = test system: MDA-MB-361; test: Antiproliferative activity against human MDA-MB-361 cells assessed as cell growth inhibition incubated for 1 days by MTS assay; format: functional, cell-based; settings: MDA-MB-361, 24 h
[21] = test system: MDA-MB-361; test: Induction of apoptosis in human MDA-MB-361 cells assessed as induction in cell death at 1 micromol/L incubated for 48 hrs by FACS analysis relative to control; format: functional; settings: dose 1 µmol/L, at 1 µM
[22] = test system: MDA-MB-361; test: Antitumor activity against human MDA-MB-361 cells assessed as reduction in oxygen consumption rate at 1 micromol/L incubated for 1 hrs relative to control; format: functional; parameters: scale not given: the % may be the effect or the level left; settings: dose 1 µmol/L, at 1 µM
[23] = test system: PC3MM2; test: Antitumor activity against human PC3MM2 cells assessed as block the hypoxia-induced VEGF production in low oxygen at 0.3 micromol/L incubated for 24 hrs by ELISA analysis; format: functional, cell-based; settings: dose 0.3 µmol/L
[24] = test system: MDA-MB-361; test: Antitumor activity against human MDA-MB-361 cells xenografted in female nude mouse model assessed as suppression in P-AKT at S473 level at 50 mg/kg, po qd administered as 5 days on/2 days off regimen for 4 cycles by immunoblot analysis; format: functional, organism-based; settings: time 28.0 day
[25] = test system: NCI-H1975; test: Antitumor activity against human NCI-H1975 cells xenografted in female nude mouse model assessed as survival at 10 mg/kg, po qd administered as 5 days on/2 days off regimen for 4 cycles; format: functional, organism-based; settings: time 28.0 day
[26] = target: T1, mTORC2 (Homo sapiens) (UniProt P42345+Q6R327+Q9BVC4+Q9BPZ7); settings: PC3MM2, dose 0.1-1 µM, time 6.0 hrs
[27] = target: T1, mTORC2 (Homo sapiens); settings: U-87 MG, dose 0.025-2 µmol/L, time 6.0 hrs

Sequence of Tyrosine-protein kinase CSK (Homo sapiens) (P41240 2-450 limits assumed): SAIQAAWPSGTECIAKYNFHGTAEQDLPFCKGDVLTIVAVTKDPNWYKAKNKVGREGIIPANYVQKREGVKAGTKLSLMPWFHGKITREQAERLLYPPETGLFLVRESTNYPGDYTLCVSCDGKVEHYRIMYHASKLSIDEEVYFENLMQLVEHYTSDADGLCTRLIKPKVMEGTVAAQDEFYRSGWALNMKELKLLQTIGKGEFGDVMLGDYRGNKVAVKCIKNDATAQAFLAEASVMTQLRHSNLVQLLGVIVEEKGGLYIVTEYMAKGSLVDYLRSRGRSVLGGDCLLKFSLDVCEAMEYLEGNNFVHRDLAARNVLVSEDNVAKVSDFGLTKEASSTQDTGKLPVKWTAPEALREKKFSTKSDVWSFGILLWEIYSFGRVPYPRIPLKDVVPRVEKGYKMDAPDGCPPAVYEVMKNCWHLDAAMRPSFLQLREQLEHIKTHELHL
Sequence of Mitogen-activated protein kinase 1 (Homo sapiens) (P28482 whole entry, the tested form may be a part): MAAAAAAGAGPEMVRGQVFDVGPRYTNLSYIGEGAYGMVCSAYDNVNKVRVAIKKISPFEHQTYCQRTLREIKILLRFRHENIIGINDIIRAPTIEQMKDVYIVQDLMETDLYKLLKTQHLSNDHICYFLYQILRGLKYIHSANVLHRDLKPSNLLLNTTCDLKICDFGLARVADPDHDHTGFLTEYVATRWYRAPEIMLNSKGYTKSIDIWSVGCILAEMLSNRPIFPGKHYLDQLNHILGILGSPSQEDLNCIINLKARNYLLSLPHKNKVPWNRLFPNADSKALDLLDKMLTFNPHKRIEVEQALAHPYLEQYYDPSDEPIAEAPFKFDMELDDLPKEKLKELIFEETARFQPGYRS
Sequence of Tyrosine-protein kinase Fyn (Homo sapiens) (P06241 2-537 limits assumed): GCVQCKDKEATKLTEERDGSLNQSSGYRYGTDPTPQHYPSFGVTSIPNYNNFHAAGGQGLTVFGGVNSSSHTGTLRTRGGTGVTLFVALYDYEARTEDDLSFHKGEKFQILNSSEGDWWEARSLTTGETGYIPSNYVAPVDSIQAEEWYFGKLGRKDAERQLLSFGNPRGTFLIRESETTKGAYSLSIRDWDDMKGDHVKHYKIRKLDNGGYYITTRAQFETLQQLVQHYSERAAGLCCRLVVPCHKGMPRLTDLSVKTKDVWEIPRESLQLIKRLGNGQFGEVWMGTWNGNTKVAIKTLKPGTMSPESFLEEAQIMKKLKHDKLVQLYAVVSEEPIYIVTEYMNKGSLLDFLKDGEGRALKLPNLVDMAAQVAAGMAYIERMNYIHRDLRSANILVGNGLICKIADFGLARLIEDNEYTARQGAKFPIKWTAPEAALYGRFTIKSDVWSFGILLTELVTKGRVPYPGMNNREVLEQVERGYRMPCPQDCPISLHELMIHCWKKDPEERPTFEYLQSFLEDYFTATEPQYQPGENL
Sequence of Leukocyte tyrosine kinase receptor (Homo sapiens) (P29376 whole entry, the tested form may be a part): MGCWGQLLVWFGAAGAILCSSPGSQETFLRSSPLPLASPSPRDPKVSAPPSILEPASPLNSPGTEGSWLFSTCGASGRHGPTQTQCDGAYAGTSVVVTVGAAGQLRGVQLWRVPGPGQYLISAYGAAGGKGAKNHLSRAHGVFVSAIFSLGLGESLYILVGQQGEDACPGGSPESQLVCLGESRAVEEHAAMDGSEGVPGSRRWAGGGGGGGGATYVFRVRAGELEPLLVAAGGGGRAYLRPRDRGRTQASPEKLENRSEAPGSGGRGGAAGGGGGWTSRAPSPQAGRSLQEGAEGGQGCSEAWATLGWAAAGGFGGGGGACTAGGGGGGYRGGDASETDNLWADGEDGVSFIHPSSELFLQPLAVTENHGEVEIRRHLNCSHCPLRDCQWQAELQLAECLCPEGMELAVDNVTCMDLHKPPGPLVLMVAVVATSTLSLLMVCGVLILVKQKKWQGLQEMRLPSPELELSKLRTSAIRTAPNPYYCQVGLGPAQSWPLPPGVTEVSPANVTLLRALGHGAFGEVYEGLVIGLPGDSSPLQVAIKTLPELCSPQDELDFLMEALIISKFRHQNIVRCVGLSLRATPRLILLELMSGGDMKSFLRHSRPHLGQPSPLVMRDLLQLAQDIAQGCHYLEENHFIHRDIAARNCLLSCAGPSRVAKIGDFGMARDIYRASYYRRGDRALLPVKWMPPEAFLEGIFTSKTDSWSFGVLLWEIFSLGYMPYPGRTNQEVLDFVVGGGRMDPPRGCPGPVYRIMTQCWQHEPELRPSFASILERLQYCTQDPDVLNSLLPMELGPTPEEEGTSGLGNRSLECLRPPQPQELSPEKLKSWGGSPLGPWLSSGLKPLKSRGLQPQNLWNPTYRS
Sequence of Serine/threonine-protein kinase MRCK alpha (Homo sapiens) (Q5VT25 whole entry, the tested form may be a part): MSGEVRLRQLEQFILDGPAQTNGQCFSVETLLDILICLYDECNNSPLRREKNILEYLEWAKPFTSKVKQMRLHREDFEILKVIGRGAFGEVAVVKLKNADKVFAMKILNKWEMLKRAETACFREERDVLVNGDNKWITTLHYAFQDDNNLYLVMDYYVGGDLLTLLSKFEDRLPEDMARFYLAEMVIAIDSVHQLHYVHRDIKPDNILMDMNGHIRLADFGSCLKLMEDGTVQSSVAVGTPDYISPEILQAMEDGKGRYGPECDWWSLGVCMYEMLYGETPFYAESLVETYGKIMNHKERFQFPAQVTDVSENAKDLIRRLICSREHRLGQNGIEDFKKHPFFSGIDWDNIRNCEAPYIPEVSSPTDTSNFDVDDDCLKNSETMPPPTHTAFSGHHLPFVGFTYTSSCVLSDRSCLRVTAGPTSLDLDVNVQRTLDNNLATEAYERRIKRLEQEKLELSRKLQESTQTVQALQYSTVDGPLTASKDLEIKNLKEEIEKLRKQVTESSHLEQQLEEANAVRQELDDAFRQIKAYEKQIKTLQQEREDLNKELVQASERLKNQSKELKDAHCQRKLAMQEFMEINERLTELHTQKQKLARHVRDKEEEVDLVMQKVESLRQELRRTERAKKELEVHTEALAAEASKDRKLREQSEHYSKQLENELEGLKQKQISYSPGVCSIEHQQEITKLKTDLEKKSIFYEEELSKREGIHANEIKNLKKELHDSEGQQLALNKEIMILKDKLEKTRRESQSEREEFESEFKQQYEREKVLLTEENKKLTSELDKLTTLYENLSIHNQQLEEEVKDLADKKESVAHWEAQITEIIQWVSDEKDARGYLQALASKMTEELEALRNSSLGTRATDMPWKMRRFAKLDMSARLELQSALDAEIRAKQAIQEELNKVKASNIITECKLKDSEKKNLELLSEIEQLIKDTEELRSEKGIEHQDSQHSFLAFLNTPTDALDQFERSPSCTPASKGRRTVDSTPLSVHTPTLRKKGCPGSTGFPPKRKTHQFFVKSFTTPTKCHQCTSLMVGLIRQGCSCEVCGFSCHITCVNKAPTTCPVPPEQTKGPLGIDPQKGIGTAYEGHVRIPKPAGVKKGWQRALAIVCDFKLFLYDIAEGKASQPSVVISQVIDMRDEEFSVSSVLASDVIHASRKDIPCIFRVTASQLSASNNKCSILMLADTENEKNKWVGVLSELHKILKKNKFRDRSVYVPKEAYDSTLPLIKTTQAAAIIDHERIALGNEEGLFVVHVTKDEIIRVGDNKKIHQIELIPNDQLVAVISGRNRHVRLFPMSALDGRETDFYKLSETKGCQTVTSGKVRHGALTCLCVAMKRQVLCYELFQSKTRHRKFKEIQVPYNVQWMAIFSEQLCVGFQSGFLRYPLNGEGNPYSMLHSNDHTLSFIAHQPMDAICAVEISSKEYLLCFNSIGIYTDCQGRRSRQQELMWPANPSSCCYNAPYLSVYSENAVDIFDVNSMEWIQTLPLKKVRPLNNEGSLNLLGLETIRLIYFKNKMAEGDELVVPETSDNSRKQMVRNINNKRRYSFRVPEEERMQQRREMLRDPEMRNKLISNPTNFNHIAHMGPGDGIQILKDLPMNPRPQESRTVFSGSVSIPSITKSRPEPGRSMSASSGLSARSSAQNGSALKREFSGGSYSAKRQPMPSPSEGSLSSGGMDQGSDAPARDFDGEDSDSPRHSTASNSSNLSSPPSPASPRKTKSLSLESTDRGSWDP
Sequence of Protein kinase C zeta type (Homo sapiens) (Q05513 whole entry): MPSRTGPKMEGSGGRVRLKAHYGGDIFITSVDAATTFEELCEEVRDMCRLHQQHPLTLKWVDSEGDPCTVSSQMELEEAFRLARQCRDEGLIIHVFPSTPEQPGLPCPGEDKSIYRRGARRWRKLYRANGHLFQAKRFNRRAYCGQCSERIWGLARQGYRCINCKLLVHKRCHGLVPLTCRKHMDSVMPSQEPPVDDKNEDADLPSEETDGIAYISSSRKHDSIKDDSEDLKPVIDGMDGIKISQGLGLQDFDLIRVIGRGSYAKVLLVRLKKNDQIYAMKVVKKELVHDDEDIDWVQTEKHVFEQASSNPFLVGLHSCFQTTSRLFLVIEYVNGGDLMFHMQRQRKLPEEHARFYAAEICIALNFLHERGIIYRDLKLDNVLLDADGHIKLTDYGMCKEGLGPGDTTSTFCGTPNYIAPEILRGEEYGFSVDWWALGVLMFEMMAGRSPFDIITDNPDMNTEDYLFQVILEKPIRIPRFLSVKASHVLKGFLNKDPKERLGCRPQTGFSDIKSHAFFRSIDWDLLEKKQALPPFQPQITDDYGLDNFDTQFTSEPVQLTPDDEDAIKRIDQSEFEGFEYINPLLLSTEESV
Sequence of Tyrosine-protein kinase HCK (Homo sapiens) (P08631 2-526 limits assumed): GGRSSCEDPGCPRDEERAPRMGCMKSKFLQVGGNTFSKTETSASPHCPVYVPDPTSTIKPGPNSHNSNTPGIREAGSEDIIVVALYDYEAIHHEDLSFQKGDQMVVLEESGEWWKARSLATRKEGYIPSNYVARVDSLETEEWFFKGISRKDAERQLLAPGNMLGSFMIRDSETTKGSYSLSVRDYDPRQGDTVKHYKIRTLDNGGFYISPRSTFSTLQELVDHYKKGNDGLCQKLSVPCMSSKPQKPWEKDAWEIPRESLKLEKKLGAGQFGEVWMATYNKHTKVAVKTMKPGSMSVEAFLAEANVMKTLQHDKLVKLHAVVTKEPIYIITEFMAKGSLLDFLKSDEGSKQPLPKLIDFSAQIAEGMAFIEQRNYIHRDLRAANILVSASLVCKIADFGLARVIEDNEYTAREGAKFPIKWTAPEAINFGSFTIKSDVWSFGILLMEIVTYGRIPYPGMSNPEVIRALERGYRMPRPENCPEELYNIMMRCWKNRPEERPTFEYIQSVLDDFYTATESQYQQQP

## CNC(=O)Nc1ccc(-c2nc(N3CC4CCC(C3)O4)c3cnn(C4CCC5(CC4)OCCO5)c3n2)cc1
[1]
  inhibition: 8%
[2]
  inhibition: 7%
[3]
  inhibition: -1%
[4]
  inhibition: 1%
[5]
  inhibition: 2%
[6]
  inhibition: 5%
[7]
  inhibition: -3%
[8]
  inhibition: 8%
[9]
  inhibition: 0%
[10]
  inhibition: 7%
[11]
  inhibition: -3%
[12]
  inhibition: 9%
[13]
  inhibition: 11%
[14]
  inhibition: 8%
[15]
  inhibition: 9%
[16]
  inhibition: -1%
[17]
  inhibition: 3%
[18]
  IC50: 0.055 µM
[19]
  inhibition at 10 µM: 100%
[20]
  IC50: 20 µM
[21]
  Activity: 47%
[22]
  Activity: 35%
[23]
  Activity: Active
[24]
  Activity: Active
[25]
  Activity: Active
[26]
  inhibition: inactive
[27]
  inhibition: inactive
